From article PMC10746543, “Design principles for cyclin K molecular glue degraders” (Nature Chemical Biology, 2023)
“And” between values parts separate entries of the source, which are not always exact repeats. Equal entries are not always repeated. Where two headings read alike, the source gives them in different places.

Assays:
HEK293T cells = assay: Drug sensitivity assay (CellTiter-Glo viability) with or without MLN4924 pretreatment; type: cell-based, human; details: Supplementary Table 2; for EC50: Homo sapiens, HEK-293T, HEK293T viability, 72 h, compound alone, read-out: Cellular assays EC50; for Toxicity rescue: MLN4924-mediated cytotoxicity rescue, 10 µM used where n.d.
Procedure: HEK293T–Cas9 cells were resuspended at 0.15 × 10^6 ml^−1 treated with DMSO or 100 nM MLN4924 and plated on 384-well plates. After 2 h, the indicated drugs were dispensed with a D300 digital dispenser (Tecan). After 3 days of drug exposure, cell viability was assessed using the CellTiter-Glo luminescent assay (Promega, G7572) on an CLARIOstar Plus, MARS 3.4 (BMG LabTech). Cell viabilities were calculated relative to DMSO controls.

[1] = tested on: cyclin K–eGFP degradation reporter; assay: Cyclin K reporter stability analysis (dual-color cyclin K–eGFP reporter); type: cell-based, human
Procedure: HEK293T–Cas9 cells expressing the cyclin K–eGFP degradation reporter were resuspended at 1 × 10^6 ml^−1 and 50 µl of cell suspension was seeded in non-cell-culture-treated 384-well plates. Shortly after, cells were treated with drug or DMSO for 5 h. […] The fluorescent signal was quantified by flow cytometry (LSRFortessa flow cytometer, BD Biosciences). Using FlowJo (flow cytometry analysis software, BD Biosciences), the geometric mean of the eGFP and mCherry fluorescent signal for round and mCherry-positive cells was calculated. The ratio of eGFP to mCherry was normalized to the average of three DMSO-treated controls.

CDK12–cyclin K and DDB1 = target: T1, CDK12–cyclin K and DDB1 (Homo sapiens, UniProt Q16531+Q9NYV4, K965R); assay: TR-FRET ternary complex formation assay (compound titration); type: binding; details: for TR-FRET signal at compound concentration: replicate titrations
T1 construct: His6–CDK12 (a.a. 713–1,052); full-length or beta-propeller B domain deletion (ΔBPB: a.a. 396–705 deleted) constructs of His6–DDB1ΔBPB, StrepII–Avi–DDB1, or His6–Spy–DDB1; made in house; host or cells: Trichoplusia ni High Five insect cells (baculovirus)
Source text: A 70 μs delay was employed to reduce background fluorescence. The TR-FRET signal was obtained through calculating the ratio of 520 nm to 490 nm fluorescence, and Prism 9 (GraphPad) was used for further data analysis.

[2] = compound concentration 79.2001 nM
[3] = compound concentration 158.4 nM
[4] = compound concentration 309.6 nM
[5] = compound concentration 626.401 nM
[6] = compound concentration 1252.8 nM
[7] = compound concentration 9936.01 nM
[8] = compound concentration 20016 nM
[9] = in vitro complex formation, 50 nM CDK12–cyclin K, 100 nM DDB1, text and figures, read-out: TR-FRET EC50
[10] = sheet MOESM7, read-out: log TR-FRET EC50 (converted)
[11] = Supplementary Table 2, HEK293T cycK-eGFP reporter, 5 h, read-out: Cellular assays DC50
[12] = Supplementary Table 2, read-out: TR-FRET EC50 TR-FRET

T1 sequence (Q9NYV4 713-1052 K965R): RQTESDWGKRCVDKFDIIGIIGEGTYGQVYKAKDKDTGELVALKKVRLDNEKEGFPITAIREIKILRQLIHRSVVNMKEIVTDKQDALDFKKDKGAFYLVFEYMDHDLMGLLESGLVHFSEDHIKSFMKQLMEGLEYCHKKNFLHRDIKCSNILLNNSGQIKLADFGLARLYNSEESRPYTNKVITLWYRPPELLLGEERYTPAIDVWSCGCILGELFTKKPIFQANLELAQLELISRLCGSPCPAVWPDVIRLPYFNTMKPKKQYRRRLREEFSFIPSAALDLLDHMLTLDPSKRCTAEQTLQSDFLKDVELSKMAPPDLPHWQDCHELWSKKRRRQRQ
T1 sequence (O75909 1-267 partner): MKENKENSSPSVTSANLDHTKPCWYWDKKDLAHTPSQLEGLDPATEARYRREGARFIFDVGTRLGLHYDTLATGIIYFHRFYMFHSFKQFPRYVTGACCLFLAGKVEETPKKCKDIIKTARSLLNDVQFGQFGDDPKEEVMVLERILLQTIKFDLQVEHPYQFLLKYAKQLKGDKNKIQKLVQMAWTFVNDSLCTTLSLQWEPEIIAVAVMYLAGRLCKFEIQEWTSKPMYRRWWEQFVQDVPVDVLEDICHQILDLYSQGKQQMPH
T1 sequence (Q16531 whole entry): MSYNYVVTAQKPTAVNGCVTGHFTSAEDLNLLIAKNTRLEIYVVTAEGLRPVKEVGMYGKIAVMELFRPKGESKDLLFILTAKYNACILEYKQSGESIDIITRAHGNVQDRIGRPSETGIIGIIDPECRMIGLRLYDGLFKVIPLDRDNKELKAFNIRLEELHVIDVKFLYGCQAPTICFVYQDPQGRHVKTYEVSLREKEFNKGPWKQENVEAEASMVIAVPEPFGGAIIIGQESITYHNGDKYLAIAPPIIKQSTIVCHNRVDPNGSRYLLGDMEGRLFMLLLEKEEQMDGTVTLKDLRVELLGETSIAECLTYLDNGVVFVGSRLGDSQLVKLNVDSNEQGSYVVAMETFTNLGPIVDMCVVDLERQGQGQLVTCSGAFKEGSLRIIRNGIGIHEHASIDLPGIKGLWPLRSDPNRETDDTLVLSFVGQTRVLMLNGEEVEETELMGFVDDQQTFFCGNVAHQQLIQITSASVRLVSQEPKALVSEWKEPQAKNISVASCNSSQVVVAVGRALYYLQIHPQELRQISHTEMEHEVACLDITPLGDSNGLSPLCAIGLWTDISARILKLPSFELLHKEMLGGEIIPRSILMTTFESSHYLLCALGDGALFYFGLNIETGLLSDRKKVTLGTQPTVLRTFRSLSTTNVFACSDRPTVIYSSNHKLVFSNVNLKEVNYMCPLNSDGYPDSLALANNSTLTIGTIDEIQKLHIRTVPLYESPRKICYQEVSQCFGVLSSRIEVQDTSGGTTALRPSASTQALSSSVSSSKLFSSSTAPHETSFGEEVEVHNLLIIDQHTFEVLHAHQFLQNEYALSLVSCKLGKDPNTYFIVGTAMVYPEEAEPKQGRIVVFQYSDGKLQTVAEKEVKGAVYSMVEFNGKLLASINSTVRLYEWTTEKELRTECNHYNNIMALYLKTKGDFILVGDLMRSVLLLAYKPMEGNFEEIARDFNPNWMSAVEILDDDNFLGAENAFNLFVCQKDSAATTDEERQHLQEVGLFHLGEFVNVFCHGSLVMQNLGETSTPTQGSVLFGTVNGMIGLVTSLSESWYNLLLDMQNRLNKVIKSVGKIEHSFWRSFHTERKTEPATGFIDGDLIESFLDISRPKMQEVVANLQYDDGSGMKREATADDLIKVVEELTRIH

| Compound | EC50 (HEK293T cells) [µM] | Toxicity rescue (HEK293T cells) [%] | TR-FRET signal at compound concentration (CDK12–cyclin K and DDB1; compound concentration 4.68 nM) | TR-FRET signal at compound concentration (CDK12–cyclin K and DDB1; compound concentration 21.6 nM) | TR-FRET signal at compound concentration (CDK12–cyclin K and DDB1; compound concentration 36 nM) | TR-FRET signal at compound concentration (CDK12–cyclin K and DDB1; [2]) | TR-FRET signal at compound concentration (CDK12–cyclin K and DDB1; [3]) | TR-FRET signal at compound concentration (CDK12–cyclin K and DDB1; [4]) | TR-FRET signal at compound concentration (CDK12–cyclin K and DDB1; [5]) | TR-FRET signal at compound concentration (CDK12–cyclin K and DDB1; [6]) | TR-FRET signal at compound concentration (CDK12–cyclin K and DDB1; compound concentration 2448 nM) | TR-FRET signal at compound concentration (CDK12–cyclin K and DDB1; [7]) | TR-FRET signal at compound concentration (CDK12–cyclin K and DDB1; [8]) | EC50 (CDK12–cyclin K and DDB1; [9]) [µM] | EC50 (CDK12–cyclin K and DDB1; [10]) [µM] | DC50 [1, 11] [µM] | EC50 (CDK12–cyclin K and DDB1; [12]) [µM] | TR-FRET signal, individual replicate (CDK12–cyclin K and DDB1; compound concentration 4.68 nM) | TR-FRET signal, individual replicate (CDK12–cyclin K and DDB1; compound concentration 21.6 nM) | TR-FRET signal, individual replicate (CDK12–cyclin K and DDB1; compound concentration 36 nM) | further results |
| --- | --- | --- | --- | --- | --- | --- | --- | --- | --- | --- | --- | --- | --- | --- | --- | --- | --- | --- | --- | --- | --- |
| CC[C@H](CO)Nc1nc(NCCCCCc2ccccc2)c2ncn(C(C)C)c2n1 [DS02] | > 10 | 0 | 0.1674 and 0.1915 | 0.2669 and 0.3147 | 0.462 and 0.5388 | 0.7422 and 0.8389 | 1.142 and 1.242 | 1.648 and 1.83 | 2.134 and 2.344 | 2.523 and 2.691 | 2.757 and 2.986 | 2.985 and 3.212 | 3.04 and 3.2335 | 0.285 ± 0.019 | 0.285 |  |  |  |  |  | DC50 ([1]; source data sheet correlations, read-out: DC50): 1.78 µM; fold lower affinity than DS11 (CDK12–cyclin K and DDB1; TR-FRET complex formation): 5-10 fold; EC50 (CDK12–cyclin K and DDB1; source data sheet correlations, read-out: TR-FRET EC50): 0.285 µM |
| CCCCc1ccc(CNc2nc(N[C@H](CC)CO)nc3c2ncn3C(C)C)cc1 [DS03] | > 10 | 0 |  |  |  |  |  |  |  |  |  |  |  | 0.185 ± 0.022 | 0.185 | > 10 | 0.185 | 0.1665 and 0.1912 | 0.2604 and 0.3178 | 0.4113 and 0.4843 | TR-FRET signal, individual replicate (CDK12–cyclin K and DDB1; [2]): 0.6704 and 0.7869; TR-FRET signal, individual replicate (CDK12–cyclin K and DDB1; [3]): 0.9573 and 1.072; TR-FRET signal, individual replicate (CDK12–cyclin K and DDB1; [4]): 1.2282 and 1.396; TR-FRET signal, individual replicate (CDK12–cyclin K and DDB1; [5]): 1.549 and 1.7468; TR-FRET signal, individual replicate (CDK12–cyclin K and DDB1; [6]): 1.782 and 2.014; TR-FRET signal, individual replicate (CDK12–cyclin K and DDB1; compound concentration 2448 nM): 1.858 and 2.0804; TR-FRET signal, individual replicate (CDK12–cyclin K and DDB1; [7]): 1.8943 and 2.138; TR-FRET signal, individual replicate (CDK12–cyclin K and DDB1; [8]): 1.837 and 2.0323 |
| CC[C@H](CO)Nc1nc(NCc2ccc(-c3ccc(-c4ccccc4)cc3)cc2)c2ncn(C(C)C)c2n1 [DS04] | > 10 | 0 | 0.1371 and 0.1443 | 0.1368 and 0.1484 | 0.135 and 0.1532 | 0.1341 and 0.1519 | 0.132 and 0.1491 | 0.1322 and 0.1487 | 0.1292 and 0.1438 | 0.1234 and 0.1372 | 0.1186 and 0.1335 | 0.1139 and 0.1272 | 0.1066 and 0.1169 |  |  | > 10 |  |  |  |  | DDB1–CDK12 complex formation, result in words (CDK12–cyclin K and DDB1; in vitro TR-FRET): abolished binding |
| CC[C@H](CO)Nc1nc(NCc2ccc(-c3ccc4ccccc4c3)cc2)c2ncn(C(C)C)c2n1 [DS05] | > 10 | 0 | 0.139 and 0.157 | 0.1423 and 0.1615 | 0.1531 and 0.1764 | 0.1718 and 0.1914 | 0.1925 and 0.2133 | 0.2424 and 0.278 | 0.3125 and 0.3604 | 0.4172 and 0.4741 | 0.5249 and 0.5984 | 0.656 and 0.7191 | 0.5857 and 0.628 | 0.936 ± 0.112 | 0.935 | > 10 | 0.935 |  |  |  |  |
| CCCCCCCCNc1nc(N[C@H](CC)CO)nc2c1ncn2C(C)C [DS06] | > 10 | 0 |  |  |  |  |  |  |  |  |  |  |  | 1.16 | 1.16 | > 10 |  | 0.1399 and 0.1627 and 0.1459 and 0.1432 | 0.173 and 0.1922 and 0.1723 and 0.1754 | 0.2228 and 0.253 and 0.2242 and 0.2297 | TR-FRET signal (CDK12–cyclin K and DDB1; compound concentration 4.68 nM): 0.1399 and 0.1627 and 0.1459 and 0.1432; TR-FRET signal (CDK12–cyclin K and DDB1; compound concentration 21.6 nM): 0.173 and 0.1922 and 0.1723 and 0.1754; TR-FRET signal (CDK12–cyclin K and DDB1; compound concentration 36 nM): 0.2228 and 0.253 and 0.2242 and 0.2297; TR-FRET signal (CDK12–cyclin K and DDB1; [2]): 0.3087 and 0.3318 and 0.3304 and 0.3159; TR-FRET signal, individual replicate (CDK12–cyclin K and DDB1; [2]): 0.3087 and 0.3318 and 0.3304 and 0.3159; TR-FRET signal (CDK12–cyclin K and DDB1; [3]): 0.4597 and 0.4851 and 0.4992 and 0.3486; TR-FRET signal, individual replicate (CDK12–cyclin K and DDB1; [3]): 0.4597 and 0.4851 and 0.4992 and 0.3486; TR-FRET signal (CDK12–cyclin K and DDB1; [4]): 0.6961 and 0.632 and 0.7161 and 0.7436; TR-FRET signal, individual replicate (CDK12–cyclin K and DDB1; [4]): 0.6961 and 0.632 and 0.7161 and 0.7436; TR-FRET signal (CDK12–cyclin K and DDB1; [5]): 0.9481 and 0.8335 and 0.9996 and 0.9936; TR-FRET signal, individual replicate (CDK12–cyclin K and DDB1; [5]): 0.9481 and 0.8335 and 0.9996 and 0.9936; TR-FRET signal (CDK12–cyclin K and DDB1; [6]): 1.125 and 0.8632 and 1.358 and 1.356; TR-FRET signal, individual replicate (CDK12–cyclin K and DDB1; [6]): 1.125 and 0.8632 and 1.358 and 1.356; TR-FRET signal (CDK12–cyclin K and DDB1; compound concentration 2448 nM): 1.642 and 1.809 and 1.711 and 1.743; TR-FRET signal, individual replicate (CDK12–cyclin K and DDB1; compound concentration 2448 nM): 1.642 and 1.809 and 1.711 and 1.743; TR-FRET signal (CDK12–cyclin K and DDB1; [7]): 2.02 and 2.174 and 2.025 and 2.055; TR-FRET signal, individual replicate (CDK12–cyclin K and DDB1; [7]): 2.02 and 2.174 and 2.025 and 2.055; TR-FRET signal (CDK12–cyclin K and DDB1; [8]): 2.092 and 2.228 and 2.285 and 2.284; TR-FRET signal, individual replicate (CDK12–cyclin K and DDB1; [8]): 2.092 and 2.228 and 2.285 and 2.284 |
| CC[C@H](CO)Nc1nc(NCc2ccc(CN(C)C)cc2)c2ncn(C(C)C)c2n1 [DS07] | > 10 | 0 |  |  |  |  |  |  |  |  |  |  |  |  | 0.285 | > 10 | 0.285 | 0.1397 and 0.1571 | 0.1381 and 0.1543 | 0.1446 and 0.1595 | TR-FRET signal, individual replicate (CDK12–cyclin K and DDB1; [2]): 0.1442 and 0.1633; TR-FRET signal, individual replicate (CDK12–cyclin K and DDB1; [3]): 0.1697 and 0.1741; TR-FRET signal, individual replicate (CDK12–cyclin K and DDB1; [4]): 0.1833 and 0.1813; TR-FRET signal, individual replicate (CDK12–cyclin K and DDB1; [5]): 0.2131 and 0.2; TR-FRET signal, individual replicate (CDK12–cyclin K and DDB1; [6]): 0.2455 and 0.2204; TR-FRET signal, individual replicate (CDK12–cyclin K and DDB1; compound concentration 2448 nM): 0.2509 and 0.2343; TR-FRET signal, individual replicate (CDK12–cyclin K and DDB1; [7]): 0.2701 and 0.2518; TR-FRET signal, individual replicate (CDK12–cyclin K and DDB1; [8]): 0.2482 and 0.2271 |
